The text below walks through data of patent EP0630366B1, “SUBSTITUTED HETEROCYCLIC DERIVATIVES USEFUL AS PLATELET AGGREGATION INHIBITORS” (G.D. Searle & Co., priority 1991, dated 1993).

Where only a bound is given, the exact number is not on record here.

What is called IC50 is the concentration that inhibits the measured activity by half. Read a high IC50 as weaker potency.

One test has as its system platelet aggregation. The experiment in a line: In-vitro platelet aggregation in PRP (ADP-induced). Type of test: cell-based, dogs. Particulars: dog platelet-rich plasma; for IC50: ADP 50 um final concentration, IC50 by linear regression of the dose response curve. The method, then:
Healthy male or female dogs were fasted for 8 hours prior to drawing blood; then 30 ml whole blood was collected using a butterfly needle and 30 cc plastic syringe with 3 ml of 0.129 M buffered sodium citrate (3.8%). The syringe was rotated carefully as blood was drawn to mix the citrate. Platelet-rich plasma (PRP) was prepared by centrifugation at 975 x g for 3.17 minutes at room temperature allowing the centrifuge to coast to a stop without braking. The PRP was removed from the blood with a plastic pipette and placed in a plastic capped, 50 mL Corning conical sterile centrifuge tube which was held at room temperature. Platelet poor plasma (PPP) was prepared by centrifuging the remaining blood at 2000 x g for 15 minutes at room temperature allowing the centrifuge to coast to a stop without braking. The PRP was adjusted with PPP to a count of 2-3 x 10^8 platelets per mL. 400 uL of the PRP preparation and 50 uL of the compounds solution to be tested or saline were preincubated for 1 minute at 37°C in a BioData, Horsham, PA). 50 uL of adenosine 5' diphosphate (ADP) (50 um final concentration) was added to the cuvettes and the aggregation was monitored for 1 minute. All compounds are tested in duplicate. Results are calculated as follows: Percent of control = [(maximal OD minus initial OD of compound) divided by (maximal OD minus initial OD of control saline)] x 100. The % inhibition = 100 - (percent of control).
The compounds tested and their median inhibitory concentrations (IC50) are recorded in Table I. IC50's (dosage at which 50% of platelet aggregation is inhibited) were calculated by linear regression of the dose response curve.

Test [1] concerns collagen induced platelet aggregation. Briefly: Inhibition of ex vivo collagen induced platelet aggregation after administration to dogs. Type of test: in vivo, dogs (Beagles). As to conditions: after 24 hours, administered orally to dogs at a dose of 20 mg/kg. The protocol: The purpose of this assay is to determine the effects of antiplatelet compounds on ex vivo collagen induced platelet aggregation when administered either intravenously or orally to dogs.
Pretreatment (control) blood samples are drawn from either conscious or anesthetized dogs (Beagles) and centrifuged to prepare platelet rich plasma (PRP). Aggregatory response to collagen is measured in a aggregometer and used as Control. Compounds are administered, either intragasterically (either by capsule or stomach tube or intravenously). Blood samples are drawn at predetermined intervals after compound administration, PRP prepared and aggregation to collagen determined. Compound inhibition of aggregation is determined by comparing the aggregation response after compound administration to the pretreatment response. The study is continued for a maximum of 24 hours or until the platelet aggregation returns to control levels. (If aggregation is still inhibited after 7 hours, a blood sample is drawn the following morning and tested.) Duration of activity is determined by the length of time platelet aggregation is inhibited after compound administration.

As for `N=C(N)c1ccc(NC(=O)CCC(=O)NC(CC(=O)O)c2cccnc2)cc1` (racemic) [Example 2, D,L-β-[[4-[[4-(aminoiminomethyl)phenyl]amino]-1,4-dioxobutyl]amino]-3-pyridinepropanoic acid], the IC50 in the test on platelet aggregation (Canis lupus familiaris) is 93 nM. With `N=C(N)c1ccc(NC(=O)C2CC2C(=O)NC(CC(=O)O)c2cccnc2)cc1` (single isomer, unassigned; isomer 2) [Example 27], the 50% inhibitory concentration (IC50) with platelet aggregation (Canis lupus familiaris) was over 10000 nM. With `CCOC(=O)C[C@H](NC(=O)CCC(=O)Nc1ccc(C(=N)N)cc1)c1cccnc1` [Example 4, Ethyl βS-[[4-[[4-(aminoiminomethyl)phenyl]amino]-1,4-dioxobutyl]amino]-3-pyridinepropanoate], the inhibited platelet aggregation result in test [1] is recorded as “up to 100%”. In the test with platelet aggregation (Canis lupus familiaris), `N=C(N)c1ccc(NC(=O)CCC(=O)N[C@@H](CC(=O)O)c2cccnc2)cc1` [Example 5, βS-[[4-[[4-(aminoiminomethyl)phenyl]amino]-1,4-dioxobutyl]amino]-3-pyridinepropanoic acid] came in with an IC50 of 47 nM. As for `N=C(N)c1ccc(NC(=O)CCC(=O)NC(CC(=O)O)c2ccccn2)cc1` (stereo not drawn) [Example 8], in the test with platelet aggregation (Canis lupus familiaris), 290 nM corresponded to half-maximal inhibition (IC50). The molecule `N=C(N)c1ccc(NC(=O)CCC(=O)NC(CC(=O)O)c2ccncc2)cc1` (stereo not drawn) [Example 10] came in with an IC50 in the test on platelet aggregation (Canis lupus familiaris) of 160 nM. As for `N=C(N)c1ccc(NC(=O)C2CCCCC2C(=O)NC(CC(=O)O)c2cccnc2)cc1` (stereo not drawn) [Example 14], in the test with platelet aggregation (Canis lupus familiaris, at 10^-5, ADP-induced aggregation, read-out: Dog PRP IC50 (cell prints inhibition at a single concentration)), the inhibition at 10 µM turned out to be 0%. `N=C(N)c1ccc(NC(=O)CCC(=O)NC(CC(=O)O)c2ccc3c(c2)OCO3)cc1` (stereo not drawn) [Example 20, β-[[4-[[4-(aminoiminomethyl)phenyl]amino]-1,4-dioxobutyl]amino]-1,3-benzodioxole-5-propanoic acid]: the IC50 in the test on platelet aggregation (Canis lupus familiaris) was determined as 68 nM. Same read-out and setting: the same measure for `CCOC(=O)CC(NC(=O)CCC(=O)Nc1ccc(C(=N)N)cc1)c1cc2c(cc1[N+](=O)[O-])OCO2` (stereo not drawn) [Example 21]: over 10000 nM. Same read-out and setting: in the case of `N=C(N)c1ccc(NC(=O)CCC(=O)NC(CC(=O)O)c2cncnc2)cc1` (stereo not drawn) [Example 22] it was 59 nM; in that of `N=C(N)c1ccc(NC(=O)CCC(=O)NC(CC(=O)O)c2cc3c(cc2[N+](=O)[O-])OCO3)cc1` (stereo not drawn) [Example 34], 1200 nM. Consider “(±) [[[4-[[4-(aminoiminomethyl)phenyl]-amino]-1,4-dioxo-(2E)-butenyl]amino]-3-pyridinepropanoic acid [Example 29]”, for which the IC50 in the test on platelet aggregation is 110 nM.

As to “(±)-1[[[4-[[4-(aminoiminomethyl)phenyl]amino]-1,4-dioxo-(2Z)-butenyl]amino]-3-pyridinepropanoic acid [Example 30]”, the IC50 in the test on platelet aggregation is over 10000 nM. Same read-out and setting: the same measure for “Ethyl β-[[4-[[4-(aminoiminomethyl)phenyl]amino]1,4-dioxobutyl]amino]-1,3-benzodioxole-5-propanoate (isomer 1) [Example 31]”: 7300 nM. On the same count and under the same terms, the same measure for “Ethyl β-[[4-[[4-aminoiminomethyl) phenyl]amino]-1,4-dioxobutyl]amino]-1,3-benzodioxole-5-propanoate [Example 19]”: over 10000 nM. On to “Ethyl-β-[[4-[[4-(aminoiminomethyl)phenyl] amino]-1,4-dioxobutyl]amino]-3-pyridinepropanoate [Example 1]”, for which the inhibited platelet aggregation result in test [1] is on record as “up to 100%”.

The molecule “β-[[4-[[3-(aminoiminomethyl)phenyl]amino]-1,5-dioxopentyl]amino]-3-pyridinepropanoic acid [Example 3]” yielded an IC50 in the test on platelet aggregation of over 10000 nM. As to “β-[[4-[[4-(aminoiminomethyl)phenyl]amino]-1,4-dioxobutyl]amino]-1,3-benzodioxole-5-propanoic acid [Example 33]”, half-maximal inhibition in the test on platelet aggregation (IC50) required 6800 nM. As for “β-[[4-[[4-(aminoiminomethyl)phenyl]amino]-1,4-dioxobutyl]amino]-2-furanpropanoic acid [Example 16]”, in test [1], the inhibited platelet aggregation result was “up to 100%”. As for “β-[[4-[[4-(aminoiminomethyl)phenyl]amino]-1,4-dioxobutyl]amino]-2-thiophenepropanoic acid [Example 18]”, the IC50 in the test with platelet aggregation is 120 nM.

As to “βR-[[4-[[4-(aminoiminomethyl)phenyl]amino]-1,4-dioxobutyl]amino]-3-pyridinepropanoic acid [Example 7]”, in the test on platelet aggregation, the IC50 was 4800 nM.
